Laboratory results from patent US6538032B1, “Phytosphingosine derivatives with antitumor activity” (Charmzone Co., Ltd., priority 2001, dated 2003).

Test system: Lewis lung carcinoma (LLC) cells
Assay: inhibition of in vivo growth of Lewis lung carcinoma
Set-up: species or system BDF1 mice
Conditions: 2000 μg, intraperitoneal, 20 doses; day 21
Procedure: The inhibition of cancer cell growth in vivo system was examined in BDF1 mice using Lewis lung carcinoma (LLC) cells. The concentration of LLC cells used was such that each mouse was injected with one million carcinoma cells via subcutaneous injection to induce a cancer. One hundred microliter of TMP liposome (TMP 100 μg) was injected intraperitoneally and intravenously, respectively, 1 day, 3 days, 6 days and 9 days after the injection of the above LLC cells. As a positive control, AG3340 (Agouron Pharmaceuticals Co., Ltd., USA), known as an MMP-2 (matrix metaloproteinasse-2) inhibitor, was suspended in 0.2% tween/0.5% carboxymethyl cellulose and 2 mg of the resulting suspension was intraperitoneally injected daily. […]
TMP.I liposomes (DPPC/Chol/TMP.I=5:5:1 mole ratio) having an anti-metastatic activity, was administered to BDF1 inoculated with Lewis Lung Carcinoma (LLC) cells and their inhibitory effect on the tumor growth was observed. […] The same administration was repeated after 3 days, 6 days and 9 days of the subcutaneous injection of the LLC cancer cells and 21 days after the injection each mouse was killed by dislocation of the cervical vertebra, and the volume of cancer was measured by the following equation and the results are shown in the following table 5. […]

Q: Which “Volume of Cancer” value does the source give for CC1(C)SCCN(S(=O)(=O)c2ccc(Oc3ccncc3)cc2)[C@H]1C(=O)NO [AG3340] here?
A: Its value is 1100 ± 250 mm^3.
